Experimental data taken from US20080064722A1, “AGENT FOR PROMOTING INTERFERON-Y PRODUCTION” (KABUSHIKI KAISHA HAYAHIBARA SEIBUTSU KAGAKU KENKYU, priority 2001, published 2008).

What was measured:
[1] = LD50 of the cyanine dye; type: in vivo
[2] = tested on: IFN-γ production by immunocompetent cells (spleen cells); experiment: Effect of cyanine dye on IFN-γ production (ex vivo: oral dosing of mice, spleen cells cultured with lipopolysaccharide, ELISA); type: in vivo, BALB/c female mice; conditions: for IFN-γ Production: once a day over three days, spleen cells 1×10^6 cells/ml, 5 μg/ml lipopolysaccharide, 72 hours
Protocol: The following explains the effect of the cyanine dyes on INF-γ production by immunocompetent cells based on ex vivo experiment using mice as an experimental animal.
(§1) Twenty-five of 10-week-old BALB/c female mice were divided into five groups. A powder consisting of one part by weight of “NK-4”, a cyanine dye represented by Chemical Formula 1 produced by Hayashibara Biochemical Laboratories, Inc., Okayama, Japan, and 200 parts by weight of sodium bicarbonate was prepared. Then, the mixture was dissolved in physiological saline to give a concentration of 20 mg/ml. Successively, the solution was diluted to give different concentrations as indicated in Table 1 with 20 mg/ml of sodium bicarbonate aqueous solution for administration to the mice. The dilutions were orally administered to the mice in four groups once a day over three days.
Spleens were respectively extracted from the mice in each group, minced and suspended in a usual manner in the art to give the spleen cell suspension. The cell suspensions were collected and diluted in RPMI medium (pH 7.2), supplemented with 10% (v/v) calf serum […] and containing 10 mM HEPES (N-2-hydroxyethylpiperadine-N′-2-ethanesulfonic acid) and 5 μg/ml lipopolysaccharide, to give a concentration of 1×10^6 cells/ml, and were cultured at 37° C. for 72 hours. IFN-γ was measured by conventional enzyme-linked immunosorbent assay (ELISA). As a control, the mice of the group with no cyanine dye were treated similarly as above. The measured values of IFN-γ were converted into international units (IU) with reference to the standard mouse IFN-γ (Gg02-901-533) obtained form National institute of Health, U.S.A., as an IFN-γ standard.

[3] = tested on: mice; experiment: Observation of the mice administered with the cyanine dye (death, condition, side effects); type: in vivo
Protocol: as §1

## CCCCCCCN1C(C)=CS\C1=C/C=C(/C=C/c1scc(C)[n+]1CCCCCCC)c1scc(C)[n+]1CCCCCCC [Chemical Formula 2]
[1]; intraperitoneal administration
  LD50: 54 mg/kg body weight
[1]; oral administration
  LD50: 1.5 g/kg body weight

## CCN1C=CC(=CC=C(C=Cc2cc[n+](CC)c3ccccc23)c2cc[n+](CC)c3ccccc23)c2ccccc21 [NK-4]
[2]; dose 1 μg/kg body weight
  IFN-γ Production: 1.2 IU/ml
[2]; dose 10 μg/kg body weight
  IFN-γ Production: 2.2 IU/ml
[2]; dose 100 μg/kg body weight
  IFN-γ Production: 2.3 IU/ml
[2]; dose 1,000 μg/kg body weight, control 0.4 IU/ml
  IFN-γ production relative to that of the control group: sevenfold
[2]; dose 1,000 μg/kg body weight
  IFN-γ Production: 2.8 IU/ml
[3]; directly applied to living bodies
  Serious side effect such as symptom of poisoning: did not cause any serious side effect
[3]; mouse, in vivo, po
  Condition of mice (hair complexion, appetite, motility): good conditions of hair complexion, appetite, and motility
[3]; oral, 1 to 1,000 μg/kg body weight, once a day over three days
  Death of mice: did not die
